Test results taken from PubChem BioAssay (NCI).
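Method: 48-hour compound exposure of cells in 96-well plates, five concentrations, linear interpolation of endpoints. Here, GI50 denotes the concentration required for 50% inhibition of growth. Definition used: TGI = concentration required for complete inhibition of growth.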

Key:
Assay in all cases: NCI-60 cell line screen, 48 h
UACC-62 melanoma = tested on: UACC-62 melanoma
RPMI-8226 leukemia = tested on: RPMI-8226 leukemia
CCRF-CEM leukemia = tested on: CCRF-CEM leukemia
SNB-19 CNS = tested on: SNB-19 CNS
HOP-62 NSCLC = tested on: HOP-62 NSCLC
SK-MEL-28 melanoma = tested on: SK-MEL-28 melanoma
HCT-15 colon = tested on: HCT-15 colon
TK-10 renal = tested on: TK-10 renal
OVCAR-5 ovarian = tested on: OVCAR-5 ovarian
HOP-92 NSCLC = tested on: HOP-92 NSCLC
NCI/ADR-RES ovarian = tested on: NCI/ADR-RES ovarian
MCF7 breast = tested on: MCF7 breast
LOX IMVI melanoma = tested on: LOX IMVI melanoma
SR leukemia = tested on: SR leukemia
786-0 renal = tested on: 786-0 renal
A549 NSCLC = tested on: A549 NSCLC
IGROV1 ovarian = tested on: IGROV1 ovarian
HCT-116 colon = tested on: HCT-116 colon
PC-3 prostate = tested on: PC-3 prostate
SNB-75 CNS = tested on: SNB-75 CNS
SK-MEL-2 melanoma = tested on: SK-MEL-2 melanoma
BT-549 breast = tested on: BT-549 breast
OVCAR-3 ovarian = tested on: OVCAR-3 ovarian
K-562 leukemia = tested on: K-562 leukemia
SF-295 CNS = tested on: SF-295 CNS
UACC-257 melanoma = tested on: UACC-257 melanoma
SF-539 CNS = tested on: SF-539 CNS
SF-268 CNS = tested on: SF-268 CNS
SW-620 colon = tested on: SW-620 colon
T-47D breast = tested on: T-47D breast
CAKI-1 renal = tested on: CAKI-1 renal
NCI-H522 lung = tested on: NCI-H522 lung
HS 578T breast = tested on: HS 578T breast
OVCAR-4 ovarian = tested on: OVCAR-4 ovarian
EKVX NSCLC = tested on: EKVX NSCLC
DU-145 prostate = tested on: DU-145 prostate
HT29 colon = tested on: HT29 colon
ACHN renal = tested on: ACHN renal
MALME-3M melanoma = tested on: MALME-3M melanoma
SN12C renal = tested on: SN12C renal
MOLT-4 leukemia = tested on: MOLT-4 leukemia
HL-60(TB) leukemia = tested on: HL-60(TB) leukemia
UO-31 renal = tested on: UO-31 renal
M14 melanoma = tested on: M14 melanoma
NCI-H226 lung = tested on: NCI-H226 lung
NCI-H23 lung = tested on: NCI-H23 lung
SK-MEL-5 melanoma = tested on: SK-MEL-5 melanoma
COLO 205 colon = tested on: COLO 205 colon
NCI-H460 lung = tested on: NCI-H460 lung
RXF 393 renal = tested on: RXF 393 renal
KM12 colon = tested on: KM12 colon
OVCAR-8 ovarian = tested on: OVCAR-8 ovarian
MDA-MB-435 = tested on: MDA-MB-435
SK-OV-3 ovarian = tested on: SK-OV-3 ovarian
MDA-MB-231 breast = tested on: MDA-MB-231 breast
U251 CNS = tested on: U251 CNS
HCC-2998 colon = tested on: HCC-2998 colon

**Q.** What does the source list for CCCCCCCCCCCCCC(=O)C(C)N (centres undefined)?
**A.** GI50 (UACC-62 melanoma): 3.25 µM; TGI (UACC-62 melanoma): 10.4 µM; GI50 (RPMI-8226 leukemia): 6.26 µM; TGI (RPMI-8226 leukemia): 23.7 µM; GI50 (CCRF-CEM leukemia): 8.35 µM; TGI (CCRF-CEM leukemia): 27.2 µM; GI50 (SNB-19 CNS): 13.5 µM; TGI (SNB-19 CNS): 30.7 µM; GI50 (HOP-62 NSCLC): 4.76 µM; TGI (HOP-62 NSCLC): 16.9 µM; GI50 (SK-MEL-28 melanoma): 16.8 µM; TGI (SK-MEL-28 melanoma): 32.5 µM; GI50 (HCT-15 colon): 0.917 µM; TGI (HCT-15 colon): 4 µM; GI50 (TK-10 renal): 3.81 µM; TGI (TK-10 renal): 13.2 µM; GI50 (OVCAR-5 ovarian): 10.6 µM; TGI (OVCAR-5 ovarian): 23.8 µM; GI50 (HOP-92 NSCLC): 5.71 µM; TGI (HOP-92 NSCLC): 19.2 µM; GI50 (NCI/ADR-RES ovarian): 13.7 µM; TGI (NCI/ADR-RES ovarian): 29.4 µM; GI50 (MCF7 breast): 2.13 µM; TGI (MCF7 breast): 5.77 µM; GI50 (LOX IMVI melanoma): 1.88 µM; TGI (LOX IMVI melanoma): 3.66 µM; GI50 (SR leukemia): 2.68 µM; TGI (SR leukemia): 8.47 µM; GI50 (786-0 renal): 12.4 µM; TGI (786-0 renal): 26.2 µM; GI50 (A549 NSCLC): 8.94 µM; TGI (A549 NSCLC): 22.5 µM; GI50 (IGROV1 ovarian): 3.68 µM; TGI (IGROV1 ovarian): 14 µM; GI50 (HCT-116 colon): 5.27 µM; TGI (HCT-116 colon): 18.7 µM; GI50 (PC-3 prostate): 2.64 µM; TGI (PC-3 prostate): 6.05 µM; GI50 (SNB-75 CNS): 6.56 µM; TGI (SNB-75 CNS): 20.7 µM; GI50 (SK-MEL-2 melanoma): 16 µM; TGI (SK-MEL-2 melanoma): 31.2 µM; GI50 (BT-549 breast): 15.4 µM; TGI (BT-549 breast): 31.1 µM; GI50 (OVCAR-3 ovarian): 14.1 µM; TGI (OVCAR-3 ovarian): 28.3 µM; GI50 (K-562 leukemia): 2.41 µM; TGI (K-562 leukemia): 11.1 µM; GI50 (SF-295 CNS): 2.88 µM; TGI (SF-295 CNS): 10 µM; GI50 (UACC-257 melanoma): 18.6 µM; TGI (UACC-257 melanoma): 34.1 µM; GI50 (SF-539 CNS): 6.63 µM; TGI (SF-539 CNS): 21.6 µM; GI50 (SF-268 CNS): 3.96 µM; TGI (SF-268 CNS): 16 µM; GI50 (SW-620 colon): 11.6 µM; TGI (SW-620 colon): 27.2 µM; GI50 (T-47D breast): 2.17 µM; TGI (T-47D breast): 5.5 µM; GI50 (CAKI-1 renal): 10 µM; TGI (CAKI-1 renal): 22.6 µM; GI50 (NCI-H522 lung): 12.7 µM; TGI (NCI-H522 lung): 27.5 µM; GI50 (HS 578T breast): 9.16 µM; TGI (HS 578T breast): 29.1 µM; GI50 (OVCAR-4 ovarian): 3.9 µM; TGI (OVCAR-4 ovarian): 16.1 µM; GI50 (EKVX NSCLC): 2.13 µM; TGI (EKVX NSCLC): 4.75 µM; GI50 (DU-145 prostate): 2.59 µM; TGI (DU-145 prostate): 7.35 µM; GI50 (HT29 colon): 3.89 µM; TGI (HT29 colon): 13.7 µM; GI50 (ACHN renal): 6.74 µM; TGI (ACHN renal): 20.7 µM; GI50 (MALME-3M melanoma): 14 µM; TGI (MALME-3M melanoma): 29.3 µM; GI50 (SN12C renal): 3.71 µM; TGI (SN12C renal): 13.3 µM; GI50 (MOLT-4 leukemia): 7.06 µM; TGI (MOLT-4 leukemia): 23.5 µM; GI50 (HL-60(TB) leukemia): 2.65 µM; TGI (HL-60(TB) leukemia): 10.4 µM; GI50 (UO-31 renal): 10.5 µM; TGI (UO-31 renal): 24.2 µM; GI50 (M14 melanoma): 8.66 µM; TGI (M14 melanoma): 22.1 µM; GI50 (NCI-H226 lung): 21.8 µM; TGI (NCI-H226 lung): 44.3 µM; GI50 (NCI-H23 lung): 6.94 µM; TGI (NCI-H23 lung): 21.9 µM; GI50 (SK-MEL-5 melanoma): 17.9 µM; TGI (SK-MEL-5 melanoma): 32.2 µM; GI50 (COLO 205 colon): 1.95 µM; TGI (COLO 205 colon): 3.87 µM; GI50 (NCI-H460 lung): 4.16 µM; TGI (NCI-H460 lung): 15.3 µM; GI50 (RXF 393 renal): 4.46 µM; TGI (RXF 393 renal): 17 µM; GI50 (KM12 colon): 3.71 µM; TGI (KM12 colon): 15.5 µM; GI50 (OVCAR-8 ovarian): 18.4 µM; TGI (OVCAR-8 ovarian): 36.1 µM; GI50 (MDA-MB-435): 13.8 µM; TGI (MDA-MB-435): 28 µM; GI50 (SK-OV-3 ovarian): 9.36 µM; TGI (SK-OV-3 ovarian): 22 µM; GI50 (MDA-MB-231 breast): 2.37 µM; TGI (MDA-MB-231 breast): 6.06 µM; GI50 (U251 CNS): 8.29 µM; TGI (U251 CNS): 21.7 µM; GI50 (HCC-2998 colon): 2.87 µM; TGI (HCC-2998 colon): 8.2 µM
